According to patent US7494991B2, “Rifamycin analogs and uses thereof” (ActivBiotics Pharma, LLC, priority 2003, dated 2009):
In brackets after ≈: the same amount, converted by molar mass.

Columns and labels:
H. flu = assay: MIC assay, H. flu; format: cell-based, H. influenza
E. faecalis = assay: MIC assay, E. faecalis; format: cell-based
E. coli = assay: MIC assay, E. coli; format: cell-based
S. pneumo. = assay: MIC assay, S. pneumo.; format: cell-based, S. pneumoniae
S. aureus = assay: MIC assay, S. aureus; format: cell-based
C. trachomatis = assay: MIC assay, C. trachomatis; format: cell-based

SMILES | MIC (μg/mL) H. flu (H. flu) | MIC (μg/mL) E. faecalis (E. faecalis) | MIC (μg/mL) E. coli (E. coli) | MIC (μg/mL) S. pneumo. (S. pneumo.) | MIC (μg/mL) S. aureus (S. aureus) | MIC (μg/mL) C. trachomatis (C. trachomatis)
CO[C@H]1/C=C/O[C@@]2(C)Oc3c(C)c(O)c4c(=O)c(c5oc6c7c(cc(O)c6nc-5c4c3C2=O)N(C)CCCN7C)NC(=O)/C(C)=C\C=C\[C@H](C)[C@H](O)[C@@H](C)[C@@H](O)[C@@H](C)[C@H](OC(C)=O)[C@@H]1C [Compound 3] | 2 µg/mL (≈ 2220 nM) | 4 µg/mL (≈ 4450 nM) | >8 µg/mL | 0.008 µg/mL (≈ 8.9 nM) | 0.06 µg/mL (≈ 66.7 nM) | 6.4e-05 µg/mL (≈ 0.0712 nM)
CO[C@H]1/C=C/O[C@@]2(C)Oc3c(C)c(O)c4c(=O)c(c5oc6c7c(cc(O)c6nc-5c4c3C2=O)N(C)CCN7C)NC(=O)/C(C)=C\C=C\[C@H](C)[C@H](O)[C@@H](C)[C@@H](O)[C@@H](C)[C@H](OC(C)=O)[C@@H]1C [Compound 1] | 1 µg/mL (≈ 1130 nM) | 1 µg/mL (≈ 1130 nM) | 8 µg/mL (≈ 9040 nM) | 0.00012 µg/mL (≈ 0.136 nM) | 0.008 µg/mL (≈ 9.04 nM) | 6.4e-05 µg/mL (≈ 0.0723 nM)
CO[C@H]1/C=C/O[C@@]2(C)Oc3c(C)c(O)c4c(=O)c(c5oc6c7c(cc(O)c6nc-5c4c3C2=O)N(C)CCCN7C)NC(=O)/C(C)=C\C=C\[C@H](C)[C@H](O)[C@@H](C)[C@@H](O)[C@@H](C)[C@H](O)[C@@H]1C [Compound 4] | 2 µg/mL (≈ 2330 nM) | 1 µg/mL (≈ 1170 nM) | >8 µg/mL | 0.00012 µg/mL (≈ 0.14 nM) | 0.12 µg/mL (≈ 140 nM) | 0.001 µg/mL (≈ 1.17 nM)
CO[C@H]1/C=C/O[C@@]2(C)Oc3c(C)c(O)c4c(=O)c(c5oc6c7c(cc(O)c6nc-5c4c3C2=O)N(C)CCN7C)NC(=O)/C(C)=C\C=C\[C@H](C)[C@H](O)[C@@H](C)[C@@H](O)[C@@H](C)[C@H](O)[C@@H]1C [Compound 2] | 2 µg/mL (≈ 2370 nM) | 1 µg/mL (≈ 1190 nM) | 8 µg/mL (≈ 9490 nM) | 0.06 µg/mL (≈ 71.2 nM) | 0.5 µg/mL (≈ 593 nM) | 0.001 µg/mL (≈ 1.19 nM)
